Patent US5652237A, “2-substituted-4H-3, 1-benzoxazin-4-ones and benzthiazin-4-ones as inhibitors of complement C1r protease for the treatment of inflammatory processes” (Warner-Lambert Company, priority 1995, dated 1997)
Read-outs that look alike come from different tables or passages of the source.

How the values were obtained:
[1] = molecular target: T1, human complement protease C1 r (Homo sapiens, UniProt P00736); experiment: Assay 2, inhibition of human complement protease C1r with substrate ZVGR-pNA; type: biochemical; conditions: Table 2; substrate ZVGR-pNA 1.2 mM, pH 7.4, 25° C., 10 minutes preincubation; read-out: Inhibition of Clr ZVGRpNA - Assay 2
T1 sequence (P00736 464-705 limits assumed): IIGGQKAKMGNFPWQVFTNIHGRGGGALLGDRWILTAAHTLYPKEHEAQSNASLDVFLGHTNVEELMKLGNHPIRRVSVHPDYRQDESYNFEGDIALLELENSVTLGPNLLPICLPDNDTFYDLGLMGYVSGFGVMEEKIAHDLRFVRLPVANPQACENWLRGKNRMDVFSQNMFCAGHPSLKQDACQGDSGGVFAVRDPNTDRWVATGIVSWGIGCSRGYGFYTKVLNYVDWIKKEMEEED
T1 sequence (P00736 18-463 partner limits assumed): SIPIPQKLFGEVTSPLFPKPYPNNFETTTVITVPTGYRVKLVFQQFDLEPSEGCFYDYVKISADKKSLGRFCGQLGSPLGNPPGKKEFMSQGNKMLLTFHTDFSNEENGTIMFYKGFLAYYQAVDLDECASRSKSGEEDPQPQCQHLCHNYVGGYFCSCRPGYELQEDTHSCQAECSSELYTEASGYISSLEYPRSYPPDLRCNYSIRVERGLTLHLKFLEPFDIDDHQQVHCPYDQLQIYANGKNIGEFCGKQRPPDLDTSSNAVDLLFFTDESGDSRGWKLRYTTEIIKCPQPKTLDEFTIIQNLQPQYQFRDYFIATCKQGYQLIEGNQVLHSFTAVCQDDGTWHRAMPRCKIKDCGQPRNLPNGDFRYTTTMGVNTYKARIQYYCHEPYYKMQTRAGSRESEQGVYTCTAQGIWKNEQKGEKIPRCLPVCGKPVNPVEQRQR
Procedure: The assay was performed in a 96-well format. Fifty microliters of water were added to each well followed by 2.5 μL of an inhibitory agent, usually in dimethyl foramide (DMF) (or water). A C1 r solution (100 μL) containing 0.1 μg of activated human C1 r and 100 mM Tris-HCl (pH 7.4 at 25° C.) was then added. The mixture was incubated for 10 minutes at 25° C. The reaction was then started by the addition of 100 μL of a 3 mM (Cbz-Val-Gly-Arg-p-nitroanilide) ZVGR-pNA solution. The final reaction mixture (250 μL) contained 40 mM of Tris-HCl, 1.2 mM of ZVGR-pNA, 0.1 μg C1 R and certain concentration of an inhibitor. The production of p-nitroaniline was monitored at 405 nm every 15 minutes up to 90 minutes (at 25° C.). The velocity was linear for at least 60 minutes.

human C1 r = molecular target: T2, human C1 r (Homo sapiens, UniProt P00736); experiment: Assay of C1r Enzyme Activity (Assay 1), thioester substrate z-Gly-Arg-S-Bzl with DTNB; type: biochemical
T2 construct: purchased Enzyme Research Labs (South Bend, Ind.)
T2 sequence (P00736 464-705 limits assumed): T1 sequence (P00736 464-705 limits assumed)
T2 sequence (P00736 18-463 partner limits assumed): T1 sequence (P00736 18-463 partner limits assumed)
Procedure: Assay of C1 r Enzyme Activity Purified human C1 r was obtained commercially from Enzyme Research Labs (South Bend, Ind.). The enzyme is stored frozen at -70° C. at a stock concentration of about 1 mg/mL of protein until the enzyme is needed. […] The thioester substrate, z-Gly-Arg-S-Bzl, for C1 r assays (McRae, et al., 1981) is obtained commercially from Enzyme System Products (Livermore, Calif.). All other reagents were obtained from Sigma Chemical Co. (St. Louis, Mo.). The procedure for assaying the inhibition of C1 r enzyme activity is as follows. A 5 mM stock solution of z-Gly-Arg-S-Bzl is made in dimethylsulfoxide (DMSO) and stored at room temperature until needed. The stock substrate solution is diluted 3 parts stock substrate solution to 7 parts distilled water to make a 1.5 mM working substrate solution. The working substrate solution is made just before it is needed. A fresh solution of 20 μg/mL of C1 r enzyme is made in 10 mM Tris buffer, pH 7.4. The enzyme solution can be stored on ice for up to an hour. […] Compounds at concentrations ranging from 1 mM to 0.010 mM are dissolved in DMSO and a 10 μL aliquot of each concentration is deposited in a well of a 96-well microtiter plate. Fifty microliters of the working substrate solution and 50 μL of DTNB solution are then dispensed in the wells of the microtiter plate, followed by the immediate addition of 50 μL of the C1 r enzyme solution to start the assay. The assay produces a yellow color that is read in the kinetic mode using a Molecular Devices Thermomax microplate reader set to a wavelength of 405 nm. The assay background is followed by monitoring wells that contain substrate, buffer, and DTNB solutions but no enzyme. All assays are performed in triplicate at each inhibitor concentration tested. Values for each inhibitor concentration are reported as optical density (OD)/minute.

[2] = Table 2, pH 7.4-7.5, read-out: Inhibition of Clr Assay 1 IC50
[3] = Table 1 and text, pH 7.4-7.5, read-out: Inhibition of Clr Assay 1 (IC50)

IC50 [1]	IC50 (human C1 r; [2])	IC50 (human C1 r; [3])	SMILES
47.8 nM	680 nM	–	CCCCCCC(=O)N(C)c1nc2ccccc2c(=O)o1 [Example 64, Heptanoic acid methyl-(4-oxo-4H-benzo[d][1,3]oxazin-2-yl)-amide]
500 nM	> 62500 nM	–	CCCCCCCCCCC(=O)N(C)c1nc2ccccc2c(=O)o1 [Example 67, Undecanoic acid methyl-(4-oxo-4H-benzo[d][1,3]oxazin-2-yl)-amide]
7.8 nM	1200 nM	–	CN(C(=O)C1CCCCC1)c1nc2ccccc2c(=O)o1 [Example 65, Cyclohexanecarboxylic acid methyl-(4-oxo-4H-benzo[d][1,3]oxazin-2-yl)-amide]
399 nM	30000 nM	–	CC(=O)N(C)c1nc2ccccc2c(=O)o1 [Example 69, N-Methyl-N-(4-oxo-4H-benzo[d][1,3]oxazin-2-yl)acetamide]
–	–	8000 nM	CN(C(=O)c1c(Cl)cccc1Cl)c1nc2ccccc2c(=O)o1 [Example 13, 2,6-Dichloro-N-methyl-N-(4-oxo-4H-benzo[d][1,3]oxazin-2-yl)-benzamide]
–	–	1400 nM	Cc1ccc2c(=O)oc(Nc3ccccc3Cl)nc2c1 [Example 45, 2-(2-Chloro-phenylamino)-7-methyl-benzo[d][1,3]oxazin-4-one]
29 nM	6320 nM	–	CCCCCCC(=O)N(CC)c1nc2ccccc2c(=O)o1 [Example 66, Heptanoic acid ethyl-(4-oxo-4H-benzo[d][1,3]oxazin-2-yl)-amide]
–	–	> 66000 nM	Cc1cccc2nc(N(C)C(=O)c3ccccc3I)oc(=O)c12 [Example 39, 2-Iodo-N-methyl-N-(5-methyl-4-oxo-4H-benzo[d][1,3]oxazin-2-yl)-benzamide]
–	–	2000 nM	O=c1oc(Nc2ccccc2Cl)nc2cc(Cl)c(Cl)cc12 [Example 48, 6,7-Dichloro-2-(2-chloro-phenylamino)-benzo[d][1,3]oxazin-4-one]
–	–	> 66000 nM	COc1ccc2c(=O)oc(Nc3ccccc3I)nc2c1 [Example 25, 2-(2-Iodo-phenylamino)-7-methoxy-benzo[d][1,3]oxazin-4-one]
103 nM	1300 nM	–	CN(C(=O)CCc1ccccc1)c1nc2ccccc2c(=O)o1 [Example 68, N-Methyl-N-(4-oxo-4H-benzo[d][1,3]oxazin-2-yl)-3-phenyl-propionamide]
–	–	> 66000 nM	Cc1ccc2nc(Nc3ccccc3I)oc(=O)c2c1 [Example 27, 2-(2-Iodo-phenylamino)-6-methyl-benzo[d][1,3]oxazin-4-one]
–	–	5100 nM	O=c1oc(Nc2ccccc2Br)nc2ccccc12 [Example 3, 2-(2-Bromo-phenylamino)-benzo[d][1,3]oxazin-4-one]
–	–	40000 nM	CN(C(=O)c1cccnc1)c1nc2ccccc2c(=O)o1 [Example 62, N-Methyl-N-(4-oxo-4H-benzo[d][1,3]oxazin-2-yl)nicotinamide]
–	–	10700 nM	CN(C(=O)c1ccccc1)c1nc2ccccc2c(=O)o1 [Example 17, N-Methyl-N-(4-oxo-4H-benzo[d][1,3]oxazin-2-yl)benzamide]
–	–	20000 nM	CN(C(=O)c1cccc(I)c1)c1nc2ccccc2c(=O)o1 [Example 37, 3-Iodo-N-methyl-N-(4-oxo-4H-benzo[d][1,3]oxazin-2-yl)-benzamide]
–	–	1400 nM	CN(c1nc2ccccc2c(=O)o1)c1ccccc1I [Example 10, 2-[Methyl-(2-iodo-phenyl)-amino]benzo[d][1,3]oxazin-4-one]
–	–	23400 nM	CN(C(=O)c1cccc2ccccc12)c1nc2ccccc2c(=O)o1 [Example 57, Naphthalene-1-carboxylic acid methyl-(4-oxo-4H-benzo[d][1,3]oxazin-2-yl)-amide]
–	–	> 66000 nM	CSc1ccccc1Nc1nc2ccccc2c(=O)o1 [Example 8, 2-(2-Methylsulfanyl-phenylamino)-benzo[d][1,3]oxazin-4-one]
–	–	3100 nM	CN(C(=O)c1ccccc1I)c1nc2ccccc2c(=O)o1 [Example 12, 2-Iodo-N-methyl-N-(4-oxo-4H-benzo[d][1,3]oxazin-2-yl)-benzamide]
–	–	8000 nM	CN(C(=O)c1ccccc1I)c1nc2cc(Cl)c(Cl)cc2c(=O)o1 [Example 56, N-(6,7-Dichloro-4-oxo-4H-benzo[d][1,3]oxazin-2-yl)-2-iodo-N-methyl-benzamide]
–	–	6000 nM	CN(C(=O)c1ccsc1)c1nc2ccccc2c(=O)o1 [Example 32, Thiophene-3-carboxylic acid methyl-(4-oxo-4H-benzo[d][1,3]oxazin-2-yl)-amide]
–	–	1300 nM	O=c1oc(Nc2c(Cl)cccc2Cl)nc2ccccc12 [Example 7, 2-(2,6-Dichloro-phenylamino)-benzo[d][1,3]oxazin-4-one]
–	–	> 66000 nM	COc1ccc2c(=O)oc(N(C)C(=O)c3ccccc3I)nc2c1 [Example 44, 2-Iodo-N-(7-methoxy-4-oxo-4H-benzo[d][1,3]oxazin-2-yl)-N-methyl-benzamide]
–	–	800 nM	CSc1ccccc1C(=O)N(C)c1nc2ccccc2c(=O)o1 [Example 15, N-Methyl-2-methylsulfanyl-N-(4-oxo-4H-benzo[d][1,3]oxazin-2-yl)-benzamide]
–	–	500 nM	O=c1oc(Nc2ccccc2I)nc2cc(Cl)c(Cl)cc12 [Example 29, 6,7-Dichloro-2-(2-iodo-phenylamino)-benzo[d][1,3]oxazin-4-one]
–	–	400 nM	O=c1oc(Nc2ccccc2I)nc2cc(C(F)(F)F)ccc12 [Example 31, 2-(2-Iodo-phenylamino)-7-trifluoromethylbenzo[d][1,3]oxazin-4-one]
